Laboratory results as given in PMC9852173, “[^111In]In-CP04 as a novel cholecystokinin-2 receptor ligand with theranostic potential in patients with progressive or metastatic medullary thyroid cancer: final results of a GRAN-T-MTC Phase I clinical trial” (European Journal of Nuclear Medicine and Molecular Imaging, 2022).
One block for each molecule: values may come before it.

Assays:
[1] = design: species or system human; conditions: in vivo
Experimental: The primary objective of the trial was the evaluation of the safety of the administration of [^111In]In-CP04 at low mass amount of 10 μg CP04 and at high mass amount of 50 μg CP04 radiolabelled with 200±10% MBq of ^111In. Therefore, the definition of the type, frequency, severity, timing, and relation to the studied radiopharmaceutical administration of Adverse Events assessed by CTCAE v4.0 was used as primary endpoint to define the safety and tolerability of [^111In]In-CP04.
Detailed physical examinations with vital sign assessment, 12-lead ECG, and laboratory testing were performed to investigate the safety of intravenous administration of [^111In]In-CP04. The overall safety profile of the tested CCK-2/gastrin receptor ligand as characterized by timing, type, frequency, severity of adverse events (AE), and laboratory abnormalities was based on Common Terminology Criteria for Adverse Events (CTCAE) version 4.0. Since this was a Phase I clinical trial, the project was assumed as having a high-risk potential for the patient, and therefore, special care was taken with the monitoring of the study. In total, eight control visits were carried out over 4 months of the follow-up with physical examination, laboratory testing, and ECG. Additionally, Ct and proCt concentrations were measured after each [^111In]In-CP04 injection at predefined time points (0, 2, 5, 10, 20 min).
(table shift speed 12 cm/min).

[2] = in vivo
Experimental: The duration of [^111In]In-CP04 administration with the low and high mass amount was 5 min and 30 min, respectively. During the injection of the IMP, a dynamic scan of the kidneys and stomach was performed for 30 min (anterior and posterior acquisition). The imaging protocol included a mandatory whole-body scan (WBS) at 1 h, 4 h, 24 h, and 48 h p.i. (table shift speed 12 cm/min). A quantitative SPECT/CT scan of the abdomen was performed at 24 h p.i. as well as an additional non-quantitative SPECT/CT scan of the area where pathological lesions were detected during WBS, if the scan duration was tolerated by the patient. Gelofusine (B. Braun, Melsungen, Germany) was administered as an infusion of 1 mL/kg body weight over 10 min followed by a 3-h infusion of 0.02 mL/kg/min after the injection of the IMPD. Physiological parameters (heart rate, blood pressure, oxygen saturation) were repeatedly measured during and after the [^111In]In-CP04 infusion as per study protocol.
During the [^111In]In-CP04 administration blood samples for dosimetry and pharmacokinetic purposes were taken at the set time intervals according to the study protocol: biodistribution and dosimetry data were acquired based on serial planar and SPECT/CT images, and blood and urine collection at regular time intervals. Urine samples were collected up to 24 h after the tracer injection to determine the bladder wall absorbed dose. On the WBS planar imaging at 1, 4, 24, and 48 h (including standard activity) and quantitative SPECT/CT imaging at 4 and 24 h, the regions of interest (ROI) were drawn over the kidneys and over the lesions when visible. The counts in the ROIs were quantified to activity by cross-calibration with the activity determined in the corresponding volumes of interest (VOIs) drawn on the quantitative SPECT/CT image at 24 h. Time-activity curves were determined by fitting exponential curves through the uptake data. Time integrated activity coefficients (TIAC) were calculated for ^111In and ^177Lu by integration of the TIACs multiplied with their physical decaty functions. The absorbed dose per unit activity in each organ was determined by multiplication with the ^111In and ^177Lu S-values according to the MIRD formalism. The blood time-activity curve was used to estimate the absorbed dose to the bone marrow. The activity concentration in the bone marrow was considered to be equal to the blood activity concentration. The activity and volumes of the urine samples were used to determine the urinary clearance rate, and with the dynamic bladder model, the TIAC in the bladder and the absorbed dose to the bladder wall were determined. The effect on the kidney absorbed dose after co-administration of the nephroprotective agent Gelofusine was evaluated. […]

[3] = test system: MTC; conditions: meta-analysis; cited from earlier work
From the text: It is well accepted that the molecular imaging modalities outperform conventional imaging (US, CT, and MRI in the present study) in the setting of recurrent disease, in particular PET/CT imaging with [^18F]F-DOPA [19–21].

[4] = test system: MTC; assay: [18F]FDG PET/CT restaging prior to enrolment; format: in vivo, human; conditions: CEA 80 to 2087 ng/mL
From the text: Sixteen patients with histologically proven and advanced MTC were enrolled in the study based on the specific inclusion and exclusion criteria. [^18F]FDG PET/CT, ceCT, or MRI imaging (initiated at Ct concentrations above 150 pg/mL or clinical suspicion of disease at a specific site) was positive in 12 patients; in four, short calcitonin doubling time (CtDT) with negative conventional imaging (CT of the neck/thorax, abdomen; [^18F]FDG PET/CT) was present.
It is well accepted that the molecular imaging modalities outperform conventional imaging (US, CT, and MRI in the present study) in the setting of recurrent disease, in particular PET/CT imaging with [^18F]F-DOPA [19–21]. […] With patient-based detection rate of over 80%, [^111In]In-CP04 slightly outperformed conventional and molecular imaging modalities (detection rate of 75%) in the present study. […] However, the patient population in our study was highly preselected and small, which likely affected the results; moreover, the reported detection rate in the mentioned meta-analysis was likely affected by the relatively low Ct concentrations (above 150 pg/mL in only 73% of patients). […]

[5] = in vivo; remark: listed apart in the source
Experimental: On the WBS planar imaging at 1, 4, 24, and 48 h (including standard activity) and quantitative SPECT/CT imaging at 4 and 24 h, the regions of interest (ROI) were drawn over the kidneys and over the lesions when visible. The counts in the ROIs were quantified to activity by cross-calibration with the activity determined in the corresponding volumes of interest (VOIs) drawn on the quantitative SPECT/CT image at 24 h. Time-activity curves were determined by fitting exponential curves through the uptake data. Time integrated activity coefficients (TIAC) were calculated for ^111In and ^177Lu by integration of the TIACs multiplied with their physical decaty functions. The absorbed dose per unit activity in each organ was determined by multiplication with the ^111In and ^177Lu S-values according to the MIRD formalism. […] The effect on the kidney absorbed dose after co-administration of the nephroprotective agent Gelofusine was evaluated. All dosimetry calculations were performed with the Hermes-OLINDA v2.1 hybrid 2D dosimetry software.

laboratory test results during control visits [1]: did not change significantly
performance status (Karnofsky index) [1]: did not change
transient tachycardia, duration [1]: less than 5 minutes
kidney absorbed dose [2]: 0.044±0.019 mSv/MBq
radiation dose for 200 MBq [2]: about 7 mSv
retention of activity in intestines, stomach and kidneys [2]: < 1 % of IA
Structure (SMILES): CSCC[C@H](NC(=O)[C@H](Cc1c[nH]c2ccccc12)NC(=O)CNC(=O)[C@H](Cc1ccc(O)cc1)NC(=O)[C@H](C)NC(=O)[C@@H](CCC(=O)O)NC(=O)[C@@H](CCC(=O)O)NC(=O)[C@@H](CCC(=O)O)NC(=O)[C@@H](CCC(=O)O)NC(=O)[C@@H](CCC(=O)O)NC(=O)[C@@H](CCC(=O)O)NC(=O)CN1CCN(CC(=O)O)CCN(CC(=O)O)CCN(CC(=O)O)CC1)C(=O)N[C@@H](CC(=O)O)C(=O)N[C@@H](Cc1ccccc1)C(N)=O [[^111In]In-CP04, [^111In]In-DOTA-(DGlu)6-Ala-Tyr-Gly-Trp-Met-Asp-Phe-NH2, metal not drawn]
ECG recordings [1]: No significant changes
transient tachycardia, heart rate [1]: up to 128 beats/min
organs with highest dose [2]: highest dose to urinary bladder, followed by the kidneys and stomach wall

Structure (SMILES): N[C@@H](Cc1cc(O)c(O)cc1[18F])C(=O)O [[^18F]F-DOPA]
pooled patient-based detection rate [3]: 66%

Structure (SMILES): OC[C@H]1OC(O)[C@H]([18F])[C@@H](O)[C@@H]1O (stereo partly drawn) [[^18F]FDG]
PET/CT positivity in the present series [4]: only positive in three patients

projected 177Lu absorbed dose to the kidneys [5]: 0.12 Gy/GBq
Structure (SMILES): CSCC[C@H](NC(=O)[C@H](Cc1c[nH]c2ccccc12)NC(=O)CNC(=O)[C@H](Cc1ccc(O)cc1)NC(=O)[C@H](C)NC(=O)[C@@H](CCC(=O)O)NC(=O)[C@@H](CCC(=O)O)NC(=O)[C@@H](CCC(=O)O)NC(=O)[C@@H](CCC(=O)O)NC(=O)[C@@H](CCC(=O)O)NC(=O)[C@@H](CCC(=O)O)NC(=O)CN1CCN(CC(=O)O)CCN(CC(=O)O)CCN(CC(=O)O)CC1)C(=O)N[C@@H](CC(=O)O)C(=O)N[C@@H](Cc1ccccc1)C(N)=O [CP04, DOTA-(DGlu)6-Ala-Tyr-Gly-Trp-Met-Asp-Phe-NH2]
